Source: patent US7892764B2, “System for seizure suppression” (priority 2006, dated 2011)

Tests used:
[1] = test system: mouse hippocampal slices; test: Basal synaptic transmission: fEPSP in hippocampal CA1 region in the presence of Mg2+; assay type: cell-based; details: amiloride 100 μM
Experimental: FIG. 6. Representative field-EPSPs and summary data showing the lack of inhibition by amiloride on basal synaptic transmission. In the presence of Mg^2+ (1.0 mM), stimulation of Schaffer collaterals induced field excitatory postsynaptic potential (fEPSP) in the CA1 region of the hippocampus.
Preparation of hippocampal slices and brain slice recording. Hippocampal slices were obtained from 8- to 10-week-old mice. The protocol for brain-slice recording was approved by the Institutional Animal Care and Use Committee of Legacy Research. Animals were deeply anesthetized with isoflurane and decapitated. Brains were quickly removed and placed in ice-cold solution that contained: 125 mM sucrose, 2.5 mM KCl, 26 mM NaHCO3, 1.25 mM NaHPO4, 6.0 mM […], 0.5 mM CaCl2, and 10 mM glucose, and was saturated with 95% O2 and 5% CO2 (pH 7.4). […]
Following ˜60 min of incubation at room temperature, individual slices were transferred to a submerged slice chamber with a volume of 0.5 mL (Warner Instruments, Hamden, Conn.) and perfused with oxygenated aCSF (35° C.) at a rate of 3-4 mL/min. […] The population spike and the field excitatory postsynaptic potentials (fEPSP) were recorded in stratum pyramidale and striatum radiatum of hippocampal CA1 region, by stimulating Schaffer Collaterals.

[2] = test system: C57BL/6 mice; test: In vivo kainic acid (KA)-induced seizure model, EEG and TUNEL staining; parameters: species or system mouse
Experimental: In an in vivo model of epilepsy (Araki et al., 2002), WT and ASIC1^−/− C57BL/6 mice. 20-25 g, had unilateral microinjection of kainic acid (KA) into the basolateral amygdala nucleus. […] Identical KA injection in ASIC1^−/− mice produced attenuated polyspike EEG activity (total duration: 109.8±30.8 sec, n=6, p<0.01 versus WT control, FIG. 8D).
TUNEL staining. Following cryostat sectioning, slices were air-dried, fixed in 10% formalin for 15 min, washed three times in PBS, permeabilized in 3% Triton X-100 for 20 min, and washed three times in PBS. Slices were subsequently incubated with a reaction mixture that contained FITC-dUTP and 300 U/mL terminal deoxy-transferase (TdT) for 90 min at 37° C. Cultures were then viewed with a fluorescent microscope at an excitation/emission wavelength of 500/550 nm (green) for FITC-TUNEL labeled cells.
Intracerebroventricular injection in mice. The procedure was performed as described in our previous studies (Pignataro et al., 2007; Xiong et al., 2004). A burr hole was drilled through the skull and a cannula inserted in the right lateral ventricle. The cannula was inserted stereotactically at 0.5 mm posterior, 1.0 mm lateral, and 3.0 mm ventral to the bregma, 0.5 μL of aCSF, amiloride, or PcTX1 was infused 60 min before KA injection.
In vivo KA-induced seizure model. A KA-induced in vivo seizure model was implemented as described in our previous studies (Araki et al., 2002). The protocol for seizure-induction in vivo in mice was approved by the Institutional Animal Care and Use Committee of Legacy Research. Adult male wild-type and ASIC1^−/− mice with genomic background of C57BL/6, 20-25 g in weight, were used for seizure induction by unilateral microinjection of KA into the basolateral amygdala nucleus based on stereotactic coordinates (AP −0.94 mm, L −2.85 mm, and V −3.75 mm relative to the Bregma). After anesthesia and catheterization of the femoral vein, animals were placed in a stereotactic frame modified with a headpiece compatible for the mouse (Kopf Instruments) and kept under anesthesia using a mixture of 68.5% N2O, 30% O2, and 1.5% isoflurane. Rectal body temperature was kept at 37±1° C. during and after the operation using either a heating pad or heating lamp (Harvard Instruments, Holiiston, Mass.). Using dental cement (Plastics One, Inc.), three skull-mounted recording electrodes were affixed to mice (Plastics One, Inc., Roanoke, Va.) and a 26-gauge steel guide cannula over the intact dura. […] The EEG was monitored for 30 min using a Grass Electroencephalogram (Model 8-16), and lorazepam (6 mg/kg, i.p.) Was then administered to terminate seizures. The EEG was further monitored for up to 30 min to ensure seizure cessation. The duration of polyspike (type 4) EEG activity for each mouse was calculated blind offline. […]

[3] = icv 0.5 μL aCSF containing PcTX1 500 ng/mL, 60 min before KA
[4] = icv PcTX1 500 ng/mL, 24 hr after KA injection

## NC(N)=NC(=O)c1nc(Cl)c(N)nc1N [amiloride, 3,5-diamino-6-chloro-N(diaminomethylidene)pyrazine-2-carboxamide]
[1]
  effect on amplitude or slope of normal fEPSP: did not affect

## Psalmotoxin 1 [PcTX1]
[2]; [3]
  duration of polyspike (type-4) EEG activity in 30 min: 128.3 ± 60.3 s
  mice showing polyspike EEG activity: two out of six
[2]; [4]
  average TUNEL positive cells in CA3: 21.8±14.1
  mice showing any CA3 injury: two out of six
